Bounds are passed on as bounds.

This is an account of results in ChEMBL document CHEMBL1145881, “Pyridone-containing farnesyltransferase inhibitors: synthesis and biological evaluation” (Bioorg Med Chem Lett, 2003).

Experiment [1] concerns the target T1, Protein farnesyltransferase (Homo sapiens, UniProt P49354+P49356). Put plainly: In vitro effective concentration against farnesyltransferase (FT); NA= Not active. It is filed as protein-complex assay.
For experiment [2], the target named is T1, Protein farnesyltransferase. Kind of experiment: In vitro inhibitory activity against farnesyltransferase (FT). It is filed as protein-complex assay.
The target in experiment [3] is T2, Geranylgeranyl transferase type I (Homo sapiens, UniProt P49354+P53609). Kind of experiment: In vitro inhibitory activity against Geranylgeranyl transferase type I. It is filed as protein-complex assay.
Experiment [4] deals with T1, Protein farnesyltransferase. Kind of experiment: In vitro effective concentration against farnesyltransferase (FT). It is filed as protein-complex assay.
The target is the same in experiment [5].
The target in experiment [6] is T2, Geranylgeranyl transferase type I. Put plainly: In vitro inhibition of Geranylgeranyl transferase type I; NA means Not active. In kind it is protein-complex assay.
Experiment [7] concerns the target T1, Protein farnesyltransferase. Put plainly: In vitro inhibition of farnesyltransferase (FT) at 100 nM. In kind it is protein-complex assay.

`Cn1cncc1C(OCc1c(-c2cccc(F)c2F)cc(C#N)c(=O)n1C)c1ccc(C#N)cc1` (stereo not drawn): the EC50 result in experiment [1] was “Not Active”. The values for the IC50 in experiment [2] and in experiment [3] were 6.3 nM and 3400 nM, respectively.
Turning to `Cn1cncc1C(OCc1c(-c2cccc(Cl)c2)cc(C#N)c(=O)n1C)c1ccc(C#N)c(-c2cccc(Cl)c2)c1` (stereo not drawn), a half-maximal effect in experiment [4] (EC50) was put at 21 nM. For the same compound, the IC50 in experiment [2] is 1 nM; in experiment [3] it was 94 nM.
In experiment [4], `CCOc1cccc(-c2cc(C#N)c(=O)n(C)c2COC(c2ccc(C#N)cc2)c2cncn2C)c1` (stereo not drawn) yielded an EC50 of 0.81 nM. In addition, the IC50 in experiment [2] came to 0.67 nM; in experiment [3] it was 1500 nM.
`Cn1cncc1C(OCc1c(-c2cc(F)cc(F)c2)cc(C#N)c(=O)n1C)c1ccc(C#N)cc1` (stereo not drawn) came in with an EC50 in experiment [4] of 7.3 nM. The IC50 worked out at 0.84 nM in experiment [2] and 12000 nM in experiment [3].
In the case of `COc1cccc(-c2cc(C#N)c(=O)n(C)c2COC(c2ccc(C#N)cc2)c2cncn2C)c1` (stereo not drawn), the EC50 in experiment [4] amounted to 4.7 nM. Further, the IC50 in experiment [2] turned out to be 0.41 nM; in experiment [3] it was 3200 nM.
The corresponding values for `Cn1cncc1C(OCc1c(-c2cc(F)ccc2F)cc(C#N)c(=O)n1C)c1ccc(C#N)cc1` (stereo not drawn) are 110 nM, 2.7 nM and 15000 nM.
`Cn1cncc1C(OCc1c(-c2ccc(F)c(Cl)c2)cc(C#N)c(=O)n1C)c1ccc(C#N)cc1` (stereo not drawn) showed an EC50 in experiment [4] of 15 nM. Besides, the IC50 amounted to 1.1 nM in experiment [2] and 1900 nM in experiment [3].
The corresponding values for `Cn1cncc1C(OCc1c(-c2ccc(F)c(F)c2)cc(C#N)c(=O)n1C)c1ccc(C#N)cc1` (stereo not drawn) are 10 nM, 1.5 nM and 5500 nM.
As for `Cn1cncc1C(OCc1c(-c2ccc(OC(F)(F)F)cc2)cc(C#N)c(=O)n1C)c1ccc(C#N)c(Br)c1` (stereo not drawn), the EC50 in experiment [4] was 10 nM. Besides, the IC50 in experiment [2] is 0.89 nM; in experiment [3] it was 220 nM.
The corresponding values for `Cn1cncc1C(OCc1c(-c2cccc(Cl)c2)cc(C#N)c(=O)n1C)c1ccc(C#N)c(Cl)c1` (stereo not drawn) are 24 nM, 0.97 nM and 890 nM.
Compound `Cn1cncc1C(OCc1c(-c2cccc(F)c2)cc(C#N)c(=O)n1C)c1ccc(C#N)cc1` (stereo not drawn) had an EC50 in experiment [4] of 11 nM. Further, the IC50 in experiment [2] is 2.1 nM; in experiment [3], more than 10000 nM.
For the compound `Cn1cncc1C(OCc1[nH]c(=O)c(C#N)cc1-c1cccc(Cl)c1)c1ccc(C#N)cc1` (stereo not drawn), in experiment [4], the EC50 was more than 100 nM. The IC50 is 0.85 nM in experiment [2] and 820 nM in experiment [3].
Turning to `Cn1cncc1C(OCc1c(-c2ccc(OC(F)(F)F)cc2)cc(C#N)c(=O)n1C)c1ccc(C#N)cc1` (stereo not drawn), the EC50 in experiment [4] turned out to be 3.9 nM. Besides, the IC50 in experiment [2] came out at 0.73 nM; in experiment [3], 1400 nM.
Turning to `Cn1cncc1C(OCc1c(-c2ccc(OC(F)(F)F)cc2)cc(C#N)c(=O)n1C)c1ccc(C#N)c(Cl)c1` (stereo not drawn), in experiment [4], the EC50 is 15 nM. Also, the IC50 in experiment [2] was 0.36 nM; in experiment [3] it was 150 nM.
For the compound `Cn1cncc1C(OCc1c(-c2ccc(Cl)c(Cl)c2)cc(C#N)c(=O)n1C)c1ccc(C#N)cc1` (stereo not drawn), the EC50 in experiment [4] came to 86 nM. For the same compound, the results for the IC50 in experiment [2] and in experiment [3] were 0.49 nM and 2300 nM, respectively.
For `Cn1cncc1C(OCc1c(-c2cccc(Cl)c2)cc(C#N)c(=O)n1C)c1ccc(C#N)c(Br)c1` (stereo not drawn), in that order: 39 nM, 1.3 nM and 610 nM.
The corresponding values for `Cn1cncc1C(OCc1c(-c2ccc3c(c2)OC(F)(F)O3)cc(C#N)c(=O)n1C)c1ccc(C#N)cc1` (stereo not drawn) are 19 nM, 0.69 nM and 6200 nM.
On to `Cn1c(COC(c2ccc(C#N)cc2)c2cncs2)c(-c2cc(Cl)cc(Cl)c2)cc(C#N)c1=O` (stereo not drawn), for which the EC50 in experiment [4] was more than 100 nM. In addition, the IC50 in experiment [2] is 1.9 nM; in experiment [3], more than 10000 nM.
For `Cn1cncc1C(OCc1c(-c2cccc(Cl)c2)cc(C#N)c(=O)n1CC1CC1)c1ccc(C#N)cc1` (stereo not drawn), in that order: 4.8 nM, 0.5 nM and 2000 nM.
With `CCCn1c(COC(c2ccc(C#N)cc2)c2cncn2C)c(-c2cccc(Cl)c2)cc(C#N)c1=O` (stereo not drawn), the EC50 in experiment [4] worked out at 12 nM. The IC50 was found to be 0.036 nM in experiment [2] and 3000 nM in experiment [3].
In the case of `Cn1cncc1C(OCc1c(-c2cc(Cl)ccc2Cl)cc(C#N)c(=O)n1C)c1ccc(C#N)cc1` (stereo not drawn), the IC50 in experiment [2] came to 1.6 nM; in experiment [3], 2900 nM. In experiment [5], the EC50 is 1.2 nM.
With `Cn1cncc1C(OCc1c(-c2ccc3c(c2)OCO3)cc(C#N)c(=O)n1C)c1ccc(C#N)cc1` (stereo not drawn), the EC50 in experiment [4] is 2.1 nM. Also, the IC50 in experiment [2] is 0.42 nM; in experiment [3] it was 3300 nM.
With `Cn1c(COC(c2ccc(C#N)cc2)c2cncs2)c(-c2ccc(OC(F)(F)F)cc2)cc(C#N)c1=O` (stereo not drawn), the EC50 result in experiment [1] is recorded as “Not Active”.
On to `Cn1cncc1C(OCc1c(-c2cc(Cl)cc(Cl)c2)cc(C#N)c(=O)n1C)c1ccc(C#N)c(Cl)c1` (stereo not drawn), for which the EC50 in experiment [4] worked out at 16 nM. Moreover, the IC50 in experiment [2] came to 0.77 nM; in experiment [3], 190 nM.
Consider `Cn1cncc1C(OCc1c(-c2cc(Cl)cc(Cl)c2)cc(C#N)c(=O)n1C)c1ccc(C#N)c(Br)c1` (stereo not drawn), for which the EC50 in experiment [4] was more than 100 nM. For the same compound, the IC50 in experiment [2] amounted to 0.42 nM; in experiment [3] it was 290 nM.
In turn, `Cn1cncc1C(OCc1c(-c2cccc(Cl)c2F)cc(C#N)c(=O)n1C)c1ccc(C#N)cc1` (stereo not drawn) yielded an EC50 in experiment [4] of 24 nM. Also, the IC50 in experiment [2] was 1.8 nM; in experiment [3], 1500 nM.
`Cn1cncc1C(OCc1c(-c2cccc(Cl)c2)cc(C#N)c(=O)n1C)c1ccc(C#N)c(I)c1` (stereo not drawn) had an EC50 in experiment [4] of 88 nM. Moreover, the figures for the IC50 in experiment [2] and in experiment [3] were 0.75 nM and more than 1000 nM, respectively.
On to `Cn1cncc1C(OCc1c(-c2ccc(OC(F)(F)F)cc2)cc(C#N)c(=O)n1C)c1ccc(C#N)c(-c2cccc(Cl)c2)c1` (stereo not drawn), for which the EC50 in experiment [4] was more than 100 nM. Further, the IC50 in experiment [2] worked out at 1.3 nM; in experiment [3] it was 30 nM.
In the case of `Cn1cncc1C(OCc1c(-c2cccc(OC(F)(F)F)c2)cc(C#N)c(=O)n1C)c1ccc(C#N)cc1` (stereo not drawn), in experiment [4], the response was half-maximal at 3.9 nM (EC50). In addition, the IC50 was 0.42 nM in experiment [2] and 1050 nM in experiment [3].
As for `Cn1cncc1C(OCc1c(-c2ccc(OC(F)(F)F)cc2)cc(C#N)c(=O)n1C)c1ccc(C#N)c(-c2ccccc2Cl)c1` (stereo not drawn), the EC50 in experiment [4] is more than 100 nM. For the same compound, the IC50 worked out at 3.9 nM in experiment [2] and 110 nM in experiment [3].
Consider `Cn1c(COC(c2ccc(C#N)cc2)c2c[nH]cn2)c(-c2cccc(Cl)c2)cc(C#N)c1=O` (stereo not drawn), for which the EC50 result in experiment [1] is “Not Active”. In addition, the IC50 was 71 nM in experiment [2] and “Not Active” in experiment [6].
With `Cn1cncc1C(OCc1c(-c2cccc(Cl)c2Cl)cc(C#N)c(=O)n1C)c1ccc(C#N)cc1` (stereo not drawn), the EC50 result in experiment [1] is listed as “Not Active”. For the same compound, the half-maximal inhibitory concentration (IC50) in experiment [2] was 6.1 nM; in experiment [3] it was 2500 nM.
Compound `Cn1cncc1C(OCc1c(-c2cccc(Br)c2)cc(C#N)c(=O)n1C)c1ccc(C#N)cc1` (stereo not drawn) came in with an EC50 in experiment [4] of 2.1 nM. For the same compound, the values for the IC50 in experiment [2] and in experiment [3] were 0.51 nM and 3400 nM, respectively.
Take `Cc1ncc(C(OCc2c(-c3cccc(Cl)c3)cc(C#N)c(=O)n2C)c2ccc(C#N)cc2)n1C` (stereo not drawn): the inhibition in experiment [7] amounted to 75%. Further, the IC50 in experiment [2] is 5.3 nM; in experiment [3], more than 900 nM.
On to `Cn1cncc1C(OCc1c(-c2ccc(F)cc2F)cc(C#N)c(=O)n1C)c1ccc(C#N)cc1` (stereo not drawn), for which the EC50 in experiment [4] was more than 100 nM. Further, the IC50 in experiment [2] was determined as 5.5 nM; in experiment [3], 4300 nM.
In the case of `Cn1cncc1C(OCc1c(-c2cc(Cl)cc(Cl)c2)cc(C#N)c(=O)n1C)c1ccc(C#N)c(-c2cccc(Cl)c2)c1` (stereo not drawn), the EC50 entry in experiment [1] is recorded as “Not Active”. The IC50 in experiment [2] amounted to 2 nM; in experiment [3], 120 nM.
As to `Cn1cncc1C(OCc1c(-c2cc(F)cc(Cl)c2)cc(C#N)c(=O)n1C)c1ccc(C#N)cc1` (stereo not drawn), the EC50 in experiment [4] came to 17 nM. Further, the IC50 in experiment [2] was found to be 0.7 nM; in experiment [3], 1800 nM.
For `Cn1cncc1C(OCc1c(-c2cc(Cl)cc(Cl)c2)cc(C#N)c(=O)n1C)c1ccc(C#N)c(I)c1` (stereo not drawn), in that order: more than 100 nM, 0.81 nM and 7500 nM.
`Cn1cncc1C(OCc1c(-c2ccc(OC(F)(F)F)cc2)cc(C#N)c(=O)n1C)c1ccc(C#N)c(-c2ccc(Cl)cc2)c1` (stereo not drawn) yielded an EC50 in experiment [4] of more than 100 nM. The results for the IC50 in experiment [2] and in experiment [3] were 6.5 nM and 160 nM, respectively.
Take `Cn1cncc1C(OCc1c(-c2cc(Cl)cc(Cl)c2)cc(C#N)c(=O)n1C)c1ccc(C#N)cc1` (stereo not drawn): a half-maximal response in experiment [4] (EC50) required 6.8 nM. The IC50 is 0.46 nM in experiment [2] and 1700 nM in experiment [3].
As for `Cn1cncc1C(OCc1ccc(C#N)cn1)c1ccc(C#N)c(-c2cccc3ccccc23)c1` (stereo not drawn), the EC50 in experiment [4] amounted to 5.9 nM. In experiment [2], this compound registered an IC50 of 0.73 nM.
For the compound `CCn1c(COC(c2ccc(C#N)cc2)c2cncn2C)c(-c2cccc(Cl)c2)cc(C#N)c1=O` (stereo not drawn), the EC50 in experiment [4] is 2.9 nM. Also, the figures for the IC50 in experiment [2] and in experiment [3] were 0.73 nM and 3300 nM, respectively.

Broadly, the EC50 is the concentration at which the effect is half-maximal. High values mean lower potency in that assay, low ones higher potency in that assay. The IC50 is the concentration at which inhibition is half-maximal. A word on the inhibition: it is the drop in the measured response relative to a control, in per cent. A higher inhibition goes with a strong effect.
